Assay results published in patent publication US12344623B2, “Thiazolopyridine derivatives as adenosine receptor antagonists” (Merck Patent GmbH, priority 2019, dated 2025).

Legend:
Assay type in all cases: cell-based
mouse Pan T cells = assay: mTcell assay, cAMP, agonist NECA; conditions: Mus musculus, T-cell
Source text: Adenosine (Ado) in tumor microenvironment can inhibit T cell activity by signaling through A2A receptors and suppress cytokine secretion by T cells. […] Potential A2A antagonists or A2A/A2B dual antagonists can rescue T cells from this inhibition. Herein, we describe the in vitro system we established using Pan T cells from mouse spleens to screen potential A2A antagonists or A2A/A2B dual antagonists for their activity. The method described involves the use of CD3/CD28 pre-coated beads to stimulate Pan T cells purified from mouse splenocytes, combined with the addition of A2A agonist along with potential A2A or A2A/A2B dual antagonists to evaluate potentiation of T cell cytokine production.
Pan T-cells are isolated from black 6 mice by manual dissociation and purified using a Miltenyi Pan T-cell isolation kit. The isolated T-cells are activated in 96 well plates for 48 hours using anti-CD3/CD28 beads in T-cell proliferation media.
After 48 hours, the T-cells are pooled, counted and suspended in serum free media containing 0.1% BSA. The cells are plated at 50,000 cells per well in 10 ul of media and incubated for 2 hours at 37° C. Test compounds are dispensed into the wells at a 10-point dose response, starting at a concentration of 10 uM. […] The plates are incubated for 30 minutes at 37° C. and assayed for cAMP levels using the Cisbio cAMP Dynamic2 reagent kit by adding 10 ul of the kit reagents to each well. The plates are incubated for 1 hour at room temperature and the HTRF signal is read on an Envision plate reader. The raw data is analyzed in Genedata Screener and the resulting data is loaded into the database.

human A2B receptor = biological target: T1, human A2B receptor (Homo sapiens, UniProt P29275); assay: Functional A2B receptor activity, recombinant HEK293 cells, cAMP (HTRF), agonist NECA; conditions: read-out: Functional A2B receptor activity, HEK293, cAMP, IC50
T1 construct: expressed in transfected cells; host or cells: HEK293
T1 sequence (P29275 1-332): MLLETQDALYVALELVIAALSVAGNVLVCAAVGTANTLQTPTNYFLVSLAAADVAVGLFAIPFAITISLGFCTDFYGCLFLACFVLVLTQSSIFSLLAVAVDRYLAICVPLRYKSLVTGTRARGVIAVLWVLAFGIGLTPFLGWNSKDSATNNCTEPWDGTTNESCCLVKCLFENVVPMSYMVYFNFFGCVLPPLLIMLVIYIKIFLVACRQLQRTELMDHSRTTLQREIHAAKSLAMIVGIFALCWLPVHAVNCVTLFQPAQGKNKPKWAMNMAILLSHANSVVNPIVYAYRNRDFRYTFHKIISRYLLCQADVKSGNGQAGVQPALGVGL
Outline: (§1)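 Cellular cAMP measured by HTRF after 30 min incubation of cells with forskolin, test compounds and agonist. Data normalized to inhibitor control and DMSO neutral control, then curve-fitted.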

human A1 receptor = biological target: T2, human A1 receptor (Homo sapiens, UniProt P30542); assay: Functional A1 receptor activity, recombinant CHO cells, cAMP (HTRF), forskolin, agonist CPA; conditions: recombinant CHO cells, forskolin, agonist CPA; read-out: Functional A1 receptor activity, CHO, cAMP, IC50
T2 construct: expressed in transfected cells; host or cells: CHO
T2 sequence (P30542 1-326): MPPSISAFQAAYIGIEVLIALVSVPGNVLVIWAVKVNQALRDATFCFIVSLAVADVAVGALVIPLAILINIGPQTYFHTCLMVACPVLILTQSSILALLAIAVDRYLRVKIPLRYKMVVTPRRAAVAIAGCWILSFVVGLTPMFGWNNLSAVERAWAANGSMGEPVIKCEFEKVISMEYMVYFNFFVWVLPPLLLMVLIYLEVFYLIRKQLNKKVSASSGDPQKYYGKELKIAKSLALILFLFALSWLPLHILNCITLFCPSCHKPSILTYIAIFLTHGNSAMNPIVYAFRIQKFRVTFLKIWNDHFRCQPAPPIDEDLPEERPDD
Outline: (§2)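 Recombinant CHO cells expressing A1 or A3 receptor (Gi-coupled) were stimulated with forskolin together with test compound and agonist (CPA for A1, IB-MECA for A3), incubated 30 min, then cellular cAMP was read by HTRF. Data were normalized to inhibitor control and DMSO neutral control, then curve-fitted.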

human A3 receptor = biological target: T3, human A3 receptor (Homo sapiens, UniProt P0DMS8); assay: Functional A3 receptor activity, recombinant CHO cells, cAMP (HTRF), forskolin, agonist IB-MECA; conditions: recombinant CHO cells, forskolin, agonist IB-MECA; read-out: Functional A3 receptor activity, CHO, cAMP, IC50
T3 construct: expressed in transfected cells; host or cells: CHO
T3 sequence (P0DMS8 1-318): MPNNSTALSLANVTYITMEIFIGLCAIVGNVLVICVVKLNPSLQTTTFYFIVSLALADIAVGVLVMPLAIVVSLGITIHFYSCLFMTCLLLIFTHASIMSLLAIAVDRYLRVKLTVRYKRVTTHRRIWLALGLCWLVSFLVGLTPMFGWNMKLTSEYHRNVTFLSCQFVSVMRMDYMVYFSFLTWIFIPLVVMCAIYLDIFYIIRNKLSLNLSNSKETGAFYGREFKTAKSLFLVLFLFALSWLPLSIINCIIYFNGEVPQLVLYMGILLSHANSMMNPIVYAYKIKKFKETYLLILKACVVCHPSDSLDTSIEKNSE
Outline: as §2

human A2A receptor [1] = biological target: T4, human A2A receptor (Homo sapiens, UniProt P29274); assay: Functional A2A receptor activity, recombinant HEK293 cells, cAMP (HTRF), agonist NECA; design: expressed in transfected cells; host or cells: HEK293; conditions: read-out: Functional A2A receptor activity, HEK293, cAMP, IC50
Outline: as §1

human A2A receptor [2] = biological target: T4, human A2A receptor; assay: Human T cells, endogenous A2A receptor, cAMP, agonist NECA; conditions: read-out: hTcell data, cAMP, IC50
Experimental: The endogenous functional activity of the Gs-coupled human A2A receptor was measured in T cells, where this receptor is highly expressed. Determination of receptor activity was done by quantification of cAMP, which is a second messenger for adenosine receptors.
In short, human pan T cells were isolated from human PBMC (MACS Pan T Cell Isolation Kit, Miltenyi Biotec) that have been derived from fresh whole blood. The T cells were seeded in 384-well microtiter plates and treated with test compounds. […] Finally, HTRF reagents (cAMP Femto Kit, CisBio) were added to the wells, and after 1 h cellular cAMP levels were determined using the ENVISION (Perkin Elmer) plate reader.
The obtained raw data were normalized against the inhibitor control and the neutral control (DMSO) and the normalized data were fitted using Genedata Screener software.

T4 sequence (P29274 whole entry): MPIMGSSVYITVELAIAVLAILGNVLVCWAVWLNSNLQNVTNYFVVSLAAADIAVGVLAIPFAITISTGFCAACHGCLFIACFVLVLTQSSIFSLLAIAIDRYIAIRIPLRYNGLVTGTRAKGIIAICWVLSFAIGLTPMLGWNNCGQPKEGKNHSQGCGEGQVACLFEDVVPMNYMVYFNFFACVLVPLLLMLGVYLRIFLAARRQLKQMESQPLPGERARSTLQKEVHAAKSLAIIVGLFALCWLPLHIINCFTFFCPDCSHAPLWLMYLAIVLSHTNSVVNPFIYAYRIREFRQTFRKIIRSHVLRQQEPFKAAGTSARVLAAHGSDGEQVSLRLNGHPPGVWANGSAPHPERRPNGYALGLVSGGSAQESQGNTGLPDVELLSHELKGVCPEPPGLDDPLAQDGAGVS

IC50 (mouse Pan T cells) | IC50 (human A2B receptor) | IC50 (human A1 receptor) | IC50 (human A3 receptor) | IC50 (human A2A receptor [1]) | IC50 (human A2A receptor [2]) | SMILES
> 1000 nM | – | – | – | – | – | COc1cnc(N2CCOCC2)c2sc(NC(=O)N3CCC4(CCN(C)C4=O)CC3)nc12 [drawing 205]
< 10 nM | < 10 nM | > 1000 nM | < 1000 nM | < 10 nM | – | COc1ncc(-c2cccc(Oc3cnn(C)c3)c2)c2sc(NC(=O)N3CCC4(CCOCC4)C3)nc12 [Compound 147, 8-Oxa-2-aza-spiro[4.5]decane-2-carboxylic acid {4-methoxy-7-[3-(1-methyl-1H-pyrazol-4-yloxy)-phenyl]-thiazolo[4,5-c]pyridin-2-yl}-amide]
< 1000 nM | – | – | – | – | – | COc1cnc(C2CCOCC2)c2sc(NC(=O)N3CCC(O)CC3)nc12 [drawing 210]
> 1000 nM | – | – | – | – | – | COc1ccc(-c2ccccc2)c2sc(NC(=O)NCCN3CCCCC3)nc12 [drawing 206]
< 1000 nM | – | – | – | – | – | COc1ccc(N2CCOCC2)c2sc(NC(=O)N3CCC4(CCCO4)CC3)nc12 [drawing 209]
< 1000 nM | – | – | – | – | – | COc1ccc(N2CCOCC2)c2sc(NC(=O)N3CCCCC3)nc12 [drawing 211]
< 10 nM | < 100 nM | > 1000 nM | > 1000 nM | < 10 nM | < 10 nM | COc1nc(F)c(C2CCOCC2)c2sc(NC(=O)N3CCC4(CCCOC4)C3)nc12 (stereo not shown) [Compound 31, 7-Oxa-2-aza-spiro[4.5]decane-2-carboxylic acid [6-fluoro-4-methoxy-7-(tetrahydro-pyran-4-yl)-thiazolo[4,5-c]pyridin-2-yl]-amide]
< 1000 nM | – | – | – | – | – | COc1cnc(N2CCOCC2)c2sc(NC(=O)N3CCCCC3)nc12 [drawing 212]
< 100 nM | < 10 nM | > 1000 nM | > 1000 nM | < 10 nM | – | COc1ncc(-c2ccoc2)c2sc(NC(=O)N3CCC4(CCOCC4)C3)nc12 [Compound 52, 8-Oxa-2-aza-spiro[4.5]decane-2-carboxylic acid (7-furan-3-yl-4-methoxy-thiazolo[4,5-c]pyridin-2-yl)-amide]
– | < 10 nM | > 1000 nM | > 1000 nM | < 10 nM | < 100 nM | COc1ncc(C2COCCO2)c2sc(NC(=O)c3ccc(-c4nnn[nH]4)cc3)nc12 (stereo not shown) [Compound 164, N-(7-[1,4]Dioxan-2-yl-4-methoxy-thiazolo[4,5-c]pyridin-2-yl)-4-(1H-tetrazol-5-yl)-benzamide]
> 1000 nM | – | – | – | – | – | COc1cnc(N2CCOCC2)c2sc(NC(=O)N3CCC4(CCCO4)CC3)nc12 [drawing 208]
< 100 nM | – | – | – | – | < 10 nM | COc1ncc([C@H]2COCCO2)c2sc(NC(=O)N3CCC4(CCOCC4)C3)nc12 [Compound 152, 8-Oxa-2-aza-spiro[4.5]decane-2-carboxylic acid ((S)-7-[1,4]dioxan-2-yl-4-methoxy-thiazolo[4,5-c]pyridin-2-yl)-amide]
– | < 100 nM | > 1000 nM | > 1000 nM | < 10 nM | < 10 nM | COc1ncc(C2=CCOCC2)c2sc(NC(=O)Nc3ccc(N4CCCC4=O)cc3)nc12 [Compound 89, 3-[7-(3,6-dihydro-2H-pyran-4-yl)-4-methoxy-[1,3]thiazolo[4,5-c]pyridin-2-yl]-1-[4-(2-oxopyrrolidin-1-yl)phenyl]urea]
– | < 10 nM | < 1000 nM | > 1000 nM | < 10 nM | < 10 nM | COc1ncc(C2=CCOCC2)c2sc(NC(=O)c3ccc(-n4ccnn4)cc3)nc12 [Compound 71, N-[7-(3,6-dihydro-2H-pyran-4-yl)-4-methoxy-[1,3]thiazolo[4,5-c]pyridin-2-yl]-4-(1H-1,2,3-triazol-1-yl)benzamide]
– | < 100 nM | < 1000 nM | > 1000 nM | < 10 nM | < 10 nM | COc1ncc(C2=CCC(F)(F)CC2)c2sc(NC(=O)N3CCC4(CCOCC4)C3)nc12 [Compound 63, 8-Oxa-2-aza-spiro[4.5]decane-2-carboxylic acid [7-(4,4-difluoro-cyclohex-1-enyl)-4-methoxy-thiazolo[4,5-c]pyridin-2-yl]-amide]
– | < 10 nM | > 1000 nM | > 1000 nM | < 10 nM | < 10 nM | COc1ncc(C2=CCOCC2)c2sc(NC(=O)N3CCC(N4C(=O)CSC4=O)CC3)nc12 [Compound 91, N-[7-(3,6-dihydro-2H-pyran-4-yl)-4-methoxy-[1,3]thiazolo[4,5-c]pyridin-2-yl]-4-(2,4-dioxo-1,3-thiazolidin-3-yl)piperidine-1-carboxamide]
– | < 100 nM | > 1000 nM | > 1000 nM | < 10 nM | < 10 nM | COc1ncc([C@H]2COCCO2)c2sc(NC(=O)c3ccc(C(=O)O)cc3)nc12 [Compound 170, N-((S)-7-[1,4]Dioxan-2-yl-4-methoxy-thiazolo[4,5-c]pyridin-2-yl)-terephthalamic acid]
– | < 100 nM | > 1000 nM | > 1000 nM | < 10 nM | < 100 nM | COc1ncc(C2COCCO2)c2sc(NC(=O)c3ccc(C(=O)O)cc3)nc12 (stereo not shown) [Compound 161, N-(7-[1,4]Dioxan-2-yl-4-methoxy-thiazolo[4,5-c]pyridin-2-yl)-terephthalamic acid]
> 1000 nM | – | – | – | – | – | COc1cnc(N2CCOCC2)c2sc(NC(=O)N3CCOCC3)nc12 [drawing 213]
– | < 100 nM | < 1000 nM | > 1000 nM | < 10 nM | < 10 nM | COc1ncc(C2=CCCCC2)c2sc(NC(=O)N3CCC4(CCOCC4)C3)nc12 [Compound 59, 8-Oxa-2-aza-spiro[4.5]decane-2-carboxylic acid (7-cyclohex-1-enyl-4-methoxy-thiazolo[4,5-c]pyridin-2-yl)-amide]
< 1000 nM | – | – | – | – | – | COc1cnc(N2CCOCC2)c2sc(NC(=O)N3CCC(CO)CC3)nc12 [drawing 207]
